The test system of the assay is 697B cells, BCR-induced NF-kB luciferase reporter luminescence. Put plainly: B-cell receptor NF-kB reporter inhibition – 697B cells, luciferase luminescence, dose response (AID 489023).

Active and inactive are the calls of the source. How the calls were made is not given here.

As for `COc1ccc(OC)c(NC(=O)c2[nH]c(C)c(C(C)=O)c2C)c1`, the IC50 was > 80 µM (inactive).
The value for `CCCCCCn1c(-c2ccco2)nc2oc3cc(OC)ccc3c(=O)c2c1=O` was > 80 µM (inactive).
The result for `Cc1cc(C)cc(OCc2nnc(SCC(=O)c3ccccc3)o2)c1` reads > 80 µM (inactive).
Regarding `COc1ccc(-c2csc3nc(-c4cccnc4)nc(N4CCC(C(N)=O)CC4)c23)cc1OC`, the IC50 is 44.2 µM (inactive).
For `Cc1cc(NC(=O)CCCN2C(=O)/C(=C/c3ccccc3Cl)SC2=S)no1`, the IC50 is 8.86 µM.
As to `CCN1CCN(C(=O)CSc2cc(=O)n(CC)c3ccccc23)CC1`, the IC50 was > 80 µM (inactive).
The result for `CC1=CC(C)(C)Nc2ccc(OC(=O)c3ccco3)cc21` reads 8.24 µM; that for `CSC1CCCCC1(O)CSc1nc2c(cc1C#N)CCCC2` (stereo not drawn), > 80 µM (inactive); that for `CCN1C(=O)c2cccc3c(S(=O)(=O)NCC4CCCO4)ccc1c23` (stereo not drawn), 69.7 µM (inactive).
Take `Cc1nc2ccccn2c1C(=O)/C=C/c1cccc([N+](=O)[O-])c1`: the IC50 was 22.8 µM (inactive).
The result for `CCCCCOc1ccc(NC(=O)C(=O)NCCCn2ccnc2)cc1` reads 4.78 µM.
For `COC(=O)[C@@]12OC[C@]34[C@H]([C@@H](O)[C@@H]1O)[C@@]1(C)C(=O)C(O[C@@H]5OC(CO)[C@@H](O)[C@@H](O)[C@@H]5O)=C[C@@H](C)[C@@H]1C[C@H]3OC(=O)[C@H](OC(=O)/C=C(\C)C(C)(C)OC(C)=O)[C@@H]24` (stereo partly drawn), the half-maximal inhibitory concentration (IC50) is 0.42 µM.
The result for `CC(=O)C1=NN(c2ccccc2)C(c2cccs2)N1c1ccc(N(C)C)cc1` (stereo not drawn) reads 31.7 µM (inactive).
With `CC1CC(C)CN(S(=O)(=O)c2ccc(C(=O)NCCCn3ccnc3)cc2)C1` (stereo not drawn), the IC50 was 5.07 µM.
With `CC(C)(C)c1ccc(-c2cc(N)n[nH]2)cc1`, the IC50 was 15.6 µM.
Take `COc1cc(/C=N/Nc2nc(Nc3ccccc3)nc(N3CCOCC3)n2)ccc1OC(=O)c1ccco1`: the IC50 was 5.16 µM.
Regarding `CCOc1ccc(-n2c(-c3ccccc3)c[n+]3c2CCCCC3)cc1`, the IC50 was > 80 µM (inactive).
The value for `COCCCNC(=O)COc1ccc(-c2nccc(-c3ccccn3)n2)cc1` was 19.4 µM; that for `COc1ccc(C2=NCc3nnc(C)n3-c3ccc(Cl)cc32)cc1Cl` was 43.6 µM (inactive); that for `CCc1ccc2nc(Nc3nc(COC)cc(=O)[nH]3)nc(C)c2c1` was > 80 µM (inactive).
In the case of `CCCc1nc2c(C)cc(-c3nc4ccccc4n3C)cc2n1Cc1ccc(-c2ccccc2C(=O)O)cc1`, the IC50 is 72.5 µM (inactive).
The result for `C=CCOc1ccc(/C=C2\SC(=S)N(CCC(=O)O)C2=O)cc1` reads 0.63 µM.
Consider `O=C(O)CCn1c(O)c(C=C2N=c3ccccc3=N2)sc1=S`, for which the IC50 is 17 µM.
In the case of `O=C(Nc1nc2nc(-c3ccccc3)cc(-c3ccccc3)n2n1)c1ccco1`, the IC50 is 48.3 µM (inactive).
Regarding `CCOC(=O)c1nn(-c2ccccc2)c(C#N)c1NC(=O)c1nn(CC)cc1Br`, the IC50 is > 80 µM (inactive).
With `Cc1ccc(/C=C2\SC(=S)N(CCCC(=O)NNC(=O)c3ccccc3O)C2=O)cc1`, the concentration for half-maximal inhibition (IC50) was 1.26 µM.
Turning to `Cc1nn(-c2ccc(N3CCCCC3)nn2)c(C)c1CCC(=O)Nc1ccccc1F`, the IC50 was > 80 µM (inactive).
As to `CCOc1cc(/C=N\Nc2nc(Nc3ccccc3)nc(N3CCOCC3)n2)ccc1OC(=O)c1ccco1`, the IC50 was 1.25 µM.
The value for `COc1ccc(NS(=O)(=O)c2ccc(-c3coc(C)n3)cc2)cc1OC` was > 80 µM (inactive).
The value for `Cc1cc(OCC(=O)NC2CC2)c2c(C)c(C)c(=O)oc2c1` was > 80 µM (inactive); that for `CCN(CC)CCOC(=O)c1ccc(NC(=O)COc2cc(=O)n(CC)c3ccccc23)cc1` was > 80 µM (inactive).
The result for `COc1ccc(-c2ccc(F)cc2)cc1[C@H]1[C@H]2C=CC[C@@H](C)[C@@H]2C(=O)N1Cc1ccccc1` reads > 80 µM (inactive).
Consider `CCc1sc(C(=O)Nc2cccc(-n3cnnn3)c2)cc1C`, for which the IC50 is > 80 µM (inactive).

(Values after PubChem BioAssay AID489023 (Sanford-Burnham Center for Chemical Genomics, 2010).)
